Results: patent US7999099B2, “Modified 5′-phosphonate azidothymidine—potential anti-viral preparations” (priority 2004, dated 2011)
Where two headings read alike, the source gives them in different places.

Tests used:
GKV-4046 HIV-1 = experiment: Inhibition of HIV-1 replication in MT-4 cell culture (p24 accumulation, cell viability by MTT); type: cell-based, type 1 human immunodeficiency virus; conditions: MT-4 cells
Experimental: Inhibition of HIV replication was studied by cultivating pre-infected lymphoid cells of MT-4 cell line in the presence of the investigational compounds in the concentration of 0.001-100 µg per 1 ml of culture medium during one passage, i.e. 4 days.
Inhibition of HIV replication in a sensitive cell culture is assessed by the reduction of p24 virus-specific protein accumulation (according to immunoenzyme assay) as well as by the increase of cell viability in the presence of the drug as compared to the control on the 4th day of cultivation using bromide 3-(4,5-dimethylthiasol-2-yl)-2,5-diphenuyltetrasolium (MTT).
The effect of the investigational compounds of HIV-1 replication in MT-4 cell culture was studied using a known method.
The therapeutic index, or the index of selectivity (IS), is calculated as the ratio of 50% toxic concentration of a compound to its 50% effective dose (the results are presented in table 1).

[1] = Pharmacokinetics of generated AZT in dog blood after oral administration; type: in vivo
Experimental: A dog weighing 12 kg was orally given 250 mg of the investigational compound (mixed with curd). Blood samples (1 ml) were taken at defined intervals from the femoral vein. The samples were centrifuged (10 minutes at 2000 rpm) and the supernatant was separated. Oxetan (internal standard, 0.25 […]g) and methanol (0.75 ml) were added to aliquots of the supernatant (0.25 ml). The resulting mixture was centrifuged for 3 minutes at 5000 rpm. The supernatant was separated and evaporated in air flow at 40° C., water (1 ml) was added to the residue. Aliqutes (20[…]1) were analyzed by HPLC in Gynkotec chromatograph (Germany) using Ultrasphere ODC Beckman analytical column (USA). Eluent: 6% acetonitrile in 0.1% H3PO4 (pH 2.1) in the presence of 0.15% triethylamine; detection at […]max 265 nm at 30° C.

## 5′-Chloromethylphosphonyl-3′-azido-3′-deoxythymidine [Ia]
GKV-4046 HIV-1
  IS (index of selectivity, ratio of 50% toxic concentration to 50% effective dose): >3000

## 5′-Hydroxymethylphosphonyl-3′-azido-3′-deoxythymidine [Ic]
GKV-4046 HIV-1
  IS (index of selectivity, ratio of 50% toxic concentration to 50% effective dose): >1600

## 5′-Iodomethylphosphonyl-3′-azido-3′-deoxythymidine [Ib]
GKV-4046 HIV-1
  IS (index of selectivity, ratio of 50% toxic concentration to 50% effective dose): >100

## Cc1cn([C@H]2C[C@H](N=[N+]=[N-])[C@@H](CO[PH](=O)O)O2)c(=O)[nH]c1=O [Nikavir, 5′-hydrohenphosphonate of 3′-azido-2′,3′-dideoxythymidine]
GKV-4046 HIV-1
  IS (index of selectivity, ratio of 50% toxic concentration to 50% effective dose): 2015
[1]; in vivo, po, 250 mg
  AUC: 16.6 mg·h/L
  CL: 15.0 L/h
  Cmax: 1.89 mg/L
  MRT: 10.4 h
  T1/2: 7.2 h
  Tmax: 4.0 h

## 5′-Aminocarbonylphosphonyl-3′-azido-3′-deoxythymidine [Ie]
GKV-4046 HIV-1
  IS (index of selectivity, ratio of 50% toxic concentration to 50% effective dose): >3000

## 5′-Methoxymethylphosphonyl-3′-azido-3′-deoxythymidine
GKV-4046 HIV-1
  IS (index of selectivity, ratio of 50% toxic concentration to 50% effective dose): >100

## Cc1cn([C@H]2C[C@H](N=[N+]=[N-])[C@@H](CO)O2)c(=O)[nH]c1=O [AZT, 3′-azido-3′-deoxythymidine]
[1]; in vivo, of azidothymidine, oral, amount equivalent to 250 mg of AZT
  half-life: 312 min
[1]; in vivo, of azidothymidine, oral, amount equivalent to 250 mg of AZT, read-out: AUC
  AUC: 58.8 mg·h/L
[1]; in vivo, of azidothymidine, oral, amount equivalent to 250 mg of AZT, read-out: Cmax
  Cmax: 9.77 mg/L
[1]; in vivo, of azidothymidine, oral, amount equivalent to 250 mg of AZT, read-out: MRT
  MRT: 7.5 h
[1]; in vivo, of azidothymidine, oral, amount equivalent to 250 mg of AZT, read-out: Tmax
  Tmax: 2.5 h
[1]; of azidothymidine, oral, amount equivalent to 250 mg of AZT
  CL: 4.2 L/h
